Data set [1] is described as follows: Dark toxicity against human HeLa cells assessed as reduction in cell viability after 48 hrs by MTT assay. The format is cell-based. On the technique in general: Tetrazolium dyes change colour on reduction, which living cells bring about.
Data set [2] deals with HeLa. As to the kind of experiment: Phototoxicity against human HeLa cells assessed as reduction in cell viability preincubated for 1 hr followed by LED light irradiation at 8 +/- 0.5 mW/cm2 for 15 mins and measured after 48 hrs by MTT assay. The format is functional, cell-based. The settings on record: light or radiation study.
Data set [3] can be described thus: Drug uptake mitochondria of in human HeLa cells at 10 uM after 1 hr by Mito tracker red-based confocal microscopic analysis. The format is ADME.
A short description of data set [4]: Drug uptake lysosome of in human HeLa cells at 10 uM after 1 hr by Lyso tracker red-based confocal microscopic analysis. The format is ADME, subcellular.
Data set [5] in a line: Aggregation property of the compound in potassium phosphate buffer assessed as particle size at 10 uM by DLS method. The format is physicochemical.
Data set [6] is described as follows: Drug uptake in human HeLa cells at 20 uM at 37 degC after 1 hr by fluorescence assay. The format is ADME, cell-based.
A short description of data set [7]: Drug uptake in human HeLa cells at 20 uM at 4 degC after 1 hr by fluorescence assay. The format is ADME, cell-based.
Data set [8] in a line: Drug uptake in human HeLa cells at 20 uM after 1 hr in presence of lipid raft inhibitor methyl-beta-cyclodextrin by fluorescence assay. The format is ADME, cell-based.
A short description of data set [9]: Drug uptake in human HeLa cells at 20 uM after 1 hr in presence of sucrose by fluorescence assay. The format is ADME, cell-based.
A short description of data set [10]: Drug uptake in human HeLa cells at 20 uM by fluorescence assay. The format is ADME, cell-based. Particulars: TDE = time-dependent effect.
Data set [11] can be described thus: Induction of singlet oxygen production irradiated with 425 to 479 nm Nd:YAG laser light measured after 100 nanoseconds post irradiation. The format is functional.

Calls of active or inactive are those of the source. The rule behind the calls is not given here.

For the molecule `N#C/C(=C\c1ccc(-c2ccc(-c3ccc(N(c4ccccc4)c4ccccc4)cc3)s2)s1)C(N)=O`, the IC50 at 48 h in data set [1] was determined as 63.1 µM. Also, in data set [2], the IC50 worked out at 8.8 µM. Besides, the Drug uptake result in data set [3] is “Active”; in data set [4], “Active”; in data set [6], “Active”; in data set [7], “Not Active”; in data set [8] it was “Active”; in data set [9] it was “Not Active”. Moreover, in data set [5], the Activity is listed as 1175 nm.
`N#C/C(=C\c1ccc(-c2ccc(-c3ccc(N(c4ccccc4)c4ccccc4)cc3)s2)s1)C(=O)O`: the half-maximal inhibitory concentration (IC50) at 48 h in data set [1] was determined as 21.9 µM. Further, the IC50 in data set [2] turned out to be 0.21 µM. The Drug uptake result in [3] is “Active”; in [4] it was “Active”; in data set [10], “Tde”; in data set [6], “Active”; in data set [7], “Not Active”; in data set [8] it was “Not Active”. In [9], the Drug uptake entry was “Not Active”. The Activity in [5] was found to be 175 nm. Also, the outcome in data set [11] was Active.
With `O=Cc1ccc(-c2ccc(-c3ccc(N(c4ccccc4)c4ccccc4)cc3)s2)s1`, in data set [1], the IC50 at 48 h came out at 88.9 µM. Moreover, the IC50 in data set [2] was 9.5 µM. For the same molecule, the Drug uptake result in data set [3] and in data set [4] was “Not Active” throughout. Moreover, the Activity result in data set [5] is “Not Active”.
For `COC(=O)/C(C#N)=C/c1ccc(-c2ccc(-c3ccc(N(c4ccccc4)c4ccccc4)cc3)s2)s1`, in data set [1], the concentration for half-maximal inhibition (IC50) at 48 h is more than 100 µM. Moreover, the IC50 in [2] was more than 100 µM. The Drug uptake result in data set [3] and in [4] was “Not Active” each time. For the same molecule, in data set [5], the Activity result is recorded as “Not Active”.
For the molecule `CC(C)(C)OC(=O)/C(C#N)=C/c1ccc(-c2ccc(-c3ccc(N(c4ccccc4)c4ccccc4)cc3)s2)s1`, the IC50 at 48 h in data set [1] was more than 100 µM. Besides, the half-maximal inhibitory concentration (IC50) in data set [2] is more than 100 µM. Besides, the Drug uptake result in data set [3] and in [4] was “Not Active” each time. For the same molecule, the Activity result in data set [5] is given as “Not Active”.

A word on the IC50: it is the concentration needed to halve the response being measured.
